Measured values taken from US9512120B2, “Microbicidally active imidazopyridine derivatives” (Syngenta Participations AG, priority 2013, dated 2016).

Key:
[1] = test system: Mycosphaerella graminicola (Septoria tritici); test: Mycosphaerella graminicola (Septoria tritici) / liquid culture (Septoria blotch); format: cell-based; conditions: Zymoseptoria tritici, PDB, 24° C., 4-5 days after application, read-out: control of Mycosphaerella graminicola (inhibition of growth, photometric)
Description: (§1) Mycosphaerella graminicola (Septoria tritici)/Liquid Culture (Septoria Blotch): Conidia of the fungus from cryogenic storage were directly mixed into nutrient broth (PDB potato dextrose broth). After placing a DMSO solution of test compound into a 96-well microtiter plate at an application rate of 200 ppm, the nutrient broth containing the fungal spores was added. The test plates were incubated at 24° C. and the inhibition of growth was determined photometrically 4-5 days after application.

Sclerotinia sclerotiorum = Sclerotinia sclerotiorum liquid culture (cottony rot / white mold); format: cell-based; conditions: PDB, 24° C., 3-4 days after application, read-out: control of Sclerotinia sclerotiorum (inhibition of growth, photometric)
Description: Sclerotinia sclerotiorum (Cottony Rot/White Mold): Mycelia fragments of a newly grown liquid culture of the fungus were directly mixed into nutrient broth (PDB potato dextrose broth). After placing a (DMSO) solution of test compound into a microtiter plate (96-well format) the nutrient broth containing the fungal material was added. The test plates are incubated at 24° C. and the inhibition of growth was determined photometrically 3-4 days after application.

[2] = test system: Thanatephorus cucumeris (Rhizoctonia solani); test: Thanatephorus cucumeris (Rhizoctonia solani) / liquid culture (foot rot, damping-off); format: cell-based; conditions: PDB, 24° C., 3-4 days after application, read-out: control of Thanatephorus cucumeris (inhibition of growth, photometric)
Description: Thanatephorus cucumeris (Rhizoctonia solani)/Liquid Culture (Foot Rot, Damping-Off): Mycelia fragments of a newly grown liquid culture of the fungus are directly mixed into nutrient broth (PDB potato dextrose broth). After placing a DMSO solution of the test compounds into a 96-well microtiter plate at an application rate of 200 ppm, the nutrient broth containing the fungal material was added. The test plates were incubated at 24° C. and the inhibition of growth was determined photometrically 3-4 days after application.

[3] = test system: Botryotinia fuckeliana (Botrytis cinerea); test: Botryotinia fuckeliana (Botrytis cinerea) / liquid culture (gray mould); format: cell-based; conditions: Vogels broth, 24° C., 3-4 days after application, read-out: control of Botryotinia fuckeliana (inhibition of growth, photometric)
Description: as §1, with “Botryotinia Fuckeliana (Botrytis cinerea)/Liquid” for “Mycosphaerella graminicola (Septoria tritici)/Liquid”, “(Gray Mould):” for “(Septoria Blotch):”, “(Vogels” for “(PDB potato dextrose”, “3-4” for “4-5”

[4] = test system: Puccinia recondita f. sp. Tritici; test: Puccinia recondita f. sp. tritici / wheat / leaf disc preventative (brown rust); format: in vivo; conditions: foliar, wheat leaf segments cv Kanzler, inoculated 1 day after application, assessed 7-9 days after application, read-out: control of Puccinia recondita f. sp. Tritici (percent disease control compared to untreated)
Description: Puccinia recondita f. Sp. Tritici/Wheat/Leaf Disc Preventative (Brown Rust): Wheat leaf segments cultivated variety (cv) Kanzler were placed on agar in 24-well plates and sprayed with formulated test compound diluted in water at an application rate of 200 ppm. The leaf disks were inoculated with a spore suspension of the fungus 1 day after application. The inoculated leaf segments were incubated at 19° C. and 75% relative humidity under a light regime of 12/12 h (light/dark) in a climate cabinet and the activity of a compound was assessed as percent disease control compared to untreated when an appropriate level of disease damage appears in untreated check leaf segments (7-9 days after application).

[5] = test system: Glomerella lagenarium (Colletotrichum lagenarium); test: Glomerella lagenarium (Colletotrichum lagenarium) / liquid culture (anthracnose); format: cell-based; conditions: Colletotrichum orbiculare, PDB, 24° C., 3-4 days after application, read-out: control of Glomerella lagenarium (inhibition of growth, photometric)
Description: as §1, with “Glomerella lagenarium (Colletotrichum lagenarium)/Liquid” for “Mycosphaerella graminicola (Septoria tritici)/Liquid”, “(Anthracnose):” for “(Septoria Blotch):”, “is measured” for “was determined”, “3-4” for “4-5”

Pyrenophora teres = Pyrenophora teres / barley / leaf disc preventative (net blotch); format: in vivo; conditions: foliar, barley leaf segments cv Hasso, inoculated two days after application, assessed 5-7 days after application, read-out: control of Pyrenophora teres (disease control compared to untreated)
Description: Pyrenophora Teres/Barley/Leaf Disc Preventative (Net Blotch): Barley leaf segments cv Hasso are placed on agar in a 24-well plate and sprayed with formulated test compound diluted in water at an application rate of 200 ppm. The leaf segments are inoculated with a spore suspension of the fungus two days after application of the test solution. The inoculated leaf segments are incubated at 20° C. and 65% relative humidity under a light regime of 12/12 h (light/dark) in a climate cabinet and the activity of a compound is assessed as disease control compared to untreated when an appropriate level of disease damage appears in untreated check leaf segments (5-7 days after application).

[6] = test system: Phaeosphaeria nodorum (Septoria nodorum); test: Phaeosphaeria nodorum (Septoria nodorum) / wheat / leaf disc preventative (glume blotch); format: in vivo; conditions: Parastagonospora nodorum, foliar, wheat leaf segments cv Kanzler, inoculated 2 days after application, assessed 5-7 days after application, read-out: control of Phaeosphaeria nodorum (percent disease control compared to untreated)
Description: Phaeosphaeria nodorum (Septoria nodorum)/Wheat/Leaf Disc Preventative (Glume Blotch): Wheat leaf segments cv Kanzler were placed on agar in a 24-well plate and sprayed with formulated test compound diluted in water at an application rate of 200 ppm. The leaf disks are inoculated with a spore suspension of the fungus 2 days after application. The inoculated test leaf disks are incubated at 20° C. and 75% relative humidity under a light regime of 12/12 h (light/dark) in a climate cabinet and the activity of a compound is assessed as percent disease control compared to untreated when an appropriate level of disease damage appears in untreated check leaf disks (5-7 days after application).

Gaeumannomyces graminis = Gaeumannomyces graminis / liquid culture (take-all of cereals); format: cell-based; conditions: PDB, 24° C., 4-5 days after application, read-out: control of Gaeumannomyces graminis (inhibition of growth, photometric)
Description: Gaeumannomyces graminis/Liquid Culture (Take-all of Cereals): Mycelial fragments of the fungus from cryogenic storage were directly mixed into nutrient broth (PDB potato dextrose broth). After placing a DMSO solution of test compound into a 96-well microtiter plate at an application rate of 200 ppm, the nutrient broth […], containing the fungal spores is added. The test plates were incubated at 24° C. and the inhibition of growth was determined photometrically 4-5 days after application.

[7] = test system: Monographella nivalis (Microdochium nivale); test: Monographella nivalis (Microdochium nivale) / liquid culture (foot rot cereals); format: cell-based; conditions: PDB, 24° C., 4-5 days after application, read-out: control of Monographella nivalis (inhibition of growth, photometric)
Description: as §1, with “Monographella nivalis (Microdochium nivale)/Liquid” for “Mycosphaerella graminicola (Septoria tritici)/Liquid”, “(Foot Rot Cereals):” for “(Septoria Blotch):”

CCn1c(-n2ncnc2N)nc2cncc(-c3ccc(Cl)cc3)c21 [Compound 35, 2-[7-(4-chlorophenyl)-1-ethylimidazo[4,5-c]pyridin-2-yl]-1,2,4-triazol-3-amine]
≥ 80%: inhibition at 20 ppm [1] | inhibition at 20 ppm (Sclerotinia sclerotiorum) | inhibition at 20 ppm [2] | inhibition at 20 ppm [3] | pest or weed control at 200 ppm [4] | inhibition at 20 ppm [5] | pest or weed control at 200 ppm (Pyrenophora teres)

CCn1c(-n2ncnc2N)nc2cncc(-c3cc(F)cc(F)c3)c21 [Compound 37, 2-[7-(3,5-difluorophenyl)-1-ethylimidazo[4,5-c]pyridin-2-yl]-1,2,4-triazol-3-amine]
≥ 80%: inhibition at 20 ppm [1] | inhibition at 20 ppm [2] | inhibition at 20 ppm [3] | inhibition at 20 ppm [5] | pest or weed control at 200 ppm [6] | pest or weed control at 200 ppm (Pyrenophora teres)

CCn1c(-n2ncnc2N)nc2cncc(-c3ccc(C)c(F)c3)c21 [Compound 41, 2-[1-ethyl-7-(3-fluoro-4-methylphenyl)imidazo[4,5-c]pyridin-2-yl]-1,2,4-triazol-3-amine]
≥ 80%: inhibition at 20 ppm [1] | inhibition at 20 ppm (Sclerotinia sclerotiorum) | inhibition at 20 ppm [2] | inhibition at 20 ppm [3] | pest or weed control at 200 ppm [4] | pest or weed control at 200 ppm (Pyrenophora teres)

CCn1c(-n2ncnc2N)nc2cncc(-c3cc4ccccc4nc3F)c21 [Compound 66, 2-[1-ethyl-7-(2-fluoroquinolin-3-yl)imidazo[4,5-c]pyridin-2-yl]-1,2,4-triazol-3-amine]
≥ 80%: inhibition at 20 ppm [1] | inhibition at 20 ppm (Sclerotinia sclerotiorum) | inhibition at 20 ppm [2] | inhibition at 20 ppm (Gaeumannomyces graminis) | inhibition at 20 ppm [3] | pest or weed control at 200 ppm [6] | pest or weed control at 200 ppm (Pyrenophora teres)

CCn1c(-n2ncnc2N)nc2cncc(-c3cccc(OC)c3OC)c21 [Compound 83, 2-[7-(2,3-dimethoxyphenyl)-1-ethylimidazo[4,5-c]pyridin-2-yl]-1,2,4-triazol-3-amine]
≥ 80%: inhibition at 20 ppm [1] | inhibition at 20 ppm [2] | inhibition at 20 ppm (Gaeumannomyces graminis) | inhibition at 20 ppm [3] | pest or weed control at 200 ppm [4] | pest or weed control at 200 ppm [6] | pest or weed control at 200 ppm (Pyrenophora teres)

CCn1c(-n2ncnc2N)nc2cncc(-c3cc(C(F)(F)F)ccc3F)c21 [Compound 84, 2-[1-ethyl-7-[2-fluoro-5-(trifluoromethyl)phenyl]imidazo[4,5-c]pyridin-2-yl]-1,2,4-triazol-3-amine]
≥ 80%: inhibition at 20 ppm [1] | inhibition at 20 ppm (Sclerotinia sclerotiorum) | inhibition at 20 ppm [2] | inhibition at 20 ppm (Gaeumannomyces graminis) | inhibition at 20 ppm [3] | pest or weed control at 200 ppm (Pyrenophora teres)

CCn1c(-n2ncnc2N)nc2cncc(-c3cc(Cl)ccc3F)c21 [Compound 91, 2-[7-(5-chloro-2-fluorophenyl)-1-ethylimidazo[4,5-c]pyridin-2-yl]-1,2,4-triazol-3-amine]
≥ 80%: inhibition at 20 ppm [1] | inhibition at 20 ppm (Sclerotinia sclerotiorum) | inhibition at 20 ppm [7] | inhibition at 20 ppm [2] | inhibition at 20 ppm (Gaeumannomyces graminis) | inhibition at 20 ppm [3] | pest or weed control at 200 ppm [4] | inhibition at 20 ppm [5] | pest or weed control at 200 ppm (Pyrenophora teres)

CCn1c(-n2ncnc2N)nc2cncc(-c3ccc(C(F)(F)F)cc3Cl)c21 [Compound 97]
≥ 80%: inhibition at 20 ppm [1] | inhibition at 20 ppm (Sclerotinia sclerotiorum) | inhibition at 20 ppm [7] | inhibition at 20 ppm [2] | inhibition at 20 ppm (Gaeumannomyces graminis) | inhibition at 20 ppm [3] | pest or weed control at 200 ppm [4] | inhibition at 20 ppm [5] | pest or weed control at 200 ppm (Pyrenophora teres)

CCCn1c(-n2ncnc2N)nc2cncc(-c3ccccc3F)c21 [Compound 121, 2-[7-(2-fluorophenyl)-1-propylimidazo[4,5-c]pyridin-2-yl]-1,2,4-triazol-3-amine]
≥ 80%: inhibition at 20 ppm [1] | inhibition at 20 ppm [2] | inhibition at 20 ppm (Gaeumannomyces graminis) | inhibition at 20 ppm [3] | pest or weed control at 200 ppm [4] | inhibition at 20 ppm [5] | pest or weed control at 200 ppm [6] | pest or weed control at 200 ppm (Pyrenophora teres)

CCCON=C(C)c1cncc2nc(-n3ncnc3N)n(CC)c12 [Compound 143]
≥ 80%: inhibition at 20 ppm [1] | inhibition at 20 ppm (Sclerotinia sclerotiorum) | inhibition at 20 ppm [2] | inhibition at 20 ppm [3] | pest or weed control at 200 ppm [4] | inhibition at 20 ppm [5] | pest or weed control at 200 ppm [6] | pest or weed control at 200 ppm (Pyrenophora teres)

CCn1c(-n2ncnc2N)nc2cncc(/C(C)=N/OC/C=C/Cl)c21 [Compound 150]
≥ 80%: inhibition at 20 ppm [1] | inhibition at 20 ppm (Sclerotinia sclerotiorum) | inhibition at 20 ppm [7] | inhibition at 20 ppm [2] | inhibition at 20 ppm [3] | pest or weed control at 200 ppm [4] | inhibition at 20 ppm [5] | pest or weed control at 200 ppm (Pyrenophora teres)

CCCn1c(-n2ncnc2N)nc2cncc(/C(C)=N/OC/C=C\Cl)c21 [Compound 181]
≥ 80%: inhibition at 20 ppm [1] | inhibition at 20 ppm (Sclerotinia sclerotiorum) | inhibition at 20 ppm [7] | inhibition at 20 ppm [2] | inhibition at 20 ppm (Gaeumannomyces graminis) | inhibition at 20 ppm [3] | pest or weed control at 200 ppm [4] | pest or weed control at 200 ppm (Pyrenophora teres)

CCCn1c(-n2ncnc2N)nc2cncc(/C(C)=N\OCC=C(C)C)c21 [Compound 188]
≥ 80%: inhibition at 20 ppm [1] | inhibition at 20 ppm (Sclerotinia sclerotiorum) | inhibition at 20 ppm [7] | inhibition at 20 ppm [2] | inhibition at 20 ppm (Gaeumannomyces graminis) | inhibition at 20 ppm [3] | pest or weed control at 200 ppm [4] | pest or weed control at 200 ppm [6] | pest or weed control at 200 ppm (Pyrenophora teres)
